Laboratory results from patent US10676468B2, “N-(3-heteroarylaryl)-4-arylarylcarboxamides and analogs as hedgehog pathway inhibitors and use thereof” (IMPACT Therapeutics, Inc., priority 2012, dated 2020).
Where a name gives a salt, the structure may show the parent alone.

The compounds below were run on Hedgehog Signaling Pathway (assay: SHH-induced differentiation of C3H10T1/2 cells into osteoblastic cells, intracellular alkaline phosphatase activity). Details: 10 nM SHH-N, 5 days, alkaline phosphatase activity (OD405), Dihydrochloride, read-out: IC50 values of compounds that inhibit Hh pathway.
Format: cell-based, mouse
How it was run: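 Mouse C3H10T1/2 cells were induced with 10 nM SHH-N alongside test compound (10 μM–10 nM) for 5 days at 37 °C. Cells were lysed in 0.2% Triton, and alkaline phosphatase activity was read at OD405 over 30 min at 37 °C with the background reading subtracted. IC50 came from a nonlinear fit against log concentration.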

IC50 [nM] | Structure (SMILES)
7.2 | C[C@@H]1CN(c2ccc(C(=O)Nc3ccc(Cl)c(-c4nc5ccc(F)cc5[nH]4)c3)c(Cl)c2)C[C@H](C)N1C [Example 131, N-(3-(6-fluoro-1H-benzo[d]imidazol-2-yl)-4-chlorophenyl)-2-chloro-4-((3S,5R)-3,4,5-trimethylpiperazin-1-yl)benzamide Dihydrochloride]

What follows are compounds tested on Hedgehog Signaling Pathway (assay: Gli-Luc reporter gene cell assay in C3H10T1/2/Gli-Luc cells stimulated with Shh). Details: 30 nM Shh, 24 hours, luciferase activity (RLU), Dihydrochloride, read-out: IC50 values of compounds that inhibit Hh pathway.
Format: cell-based, mouse
Excerpt: The Application of Reporter Gene Cell Assay for the Determination of the Inhibitory Activity of N-(3-(1H-benzo[d]imidazol-2-yl)-4-chlorophenyl)-2-methyl-4-((2S,6R)-2,6-dimethylmorpholino) benzamide and Analogs on Hedgehog Signaling Pathway
The binding of Sonic hedgehog (Shh) to its receptor Patched 1 initiates numerous intracellular signal transmission, and leads to the nuclear translocation of Gli and the elevated transcription of Gli target genes. When C3H10T1/2 cells are stably transfected with the Gli-Luc plasmids containing the luciferase gene under the control of Gli response element and stimulated with Shh, the expression of luciferase is elevated. Luciferase activity is indicative of the hedgehog signaling pathway activity. Therefore, the inhibitory activity of compounds on hedgehog signaling pathway can be measured using the luciferase activity when the transfected cells are stimulated with Shh.
The day before experiment, C3H10T1/2/Gli-Luc cells in log phase of growth were seeded into 96 well plate at a density of 20000 cells per well. The cells were maintained in DMEM (Hyclone) supplemented with 10% FBS (Hyclone) and incubated at 37° C. with 5% CO2 overnight. The compounds to be examined were diluted into 7 different concentrations by series of dilutions (⅓ and 1/10), and the eighth point of concentration is the DMSO control. Those solutions were diluted 100-fold in the fresh growth medium. The cells were taken out of the incubator and the medium of cultured cells were removed. Then, each well was added in an orderly manner with 80 μL of fresh growth medium, 20 μL of medium pre-dilution of positive compound and compounds to be tested, as well as 100 μL of growth medium containing 30 nM of Shh. The cells are returned to the incubator, and incubated for 24 hours.
Measurement of luciferase activity: After taking the 96 well plate out of the incubator, the supernatants were discarded and the cells were washed twice with PBS. Thereafter, each well was dispensed with 20 μL of lysis buffer (Promega E1531), and the plate was shaken for 30 min at room temperature. Following transferring 5 μL of cell lysate into 384 well plate (Greiner 781074), adding 25 μL of luciferase reaction buffer (Promega E1501) into each well and mixing the plate, the relative light unit (RLU) was immediately captured by VarioSkan Flash.
The data were analyzed with Prism 5 software (GraphPad). The relative light unit (RLU) was plotted against the log concentration of testing compound, and the obtained plot was fitted with non-linear curve fitting equation to calculate IC50 values. The curve fitting equation is Y (RLU)=Bottom+(Top−Bottom)/(1+10^((X−Log IC50))). X is the logarithm of concentration. Y is the measure of relative light unit (RLU).
The calculated IC50 value is a measurement of the inhibitory activity of compound to Hh pathway.

IC50 [nM] | Structure (SMILES)
1.2 | C[C@@H]1CN(c2ccc(C(=O)Nc3ccc(Cl)c(-c4nc5ccc(F)cc5[nH]4)c3)c(Cl)c2)C[C@H](C)N1C [Example 131, N-(3-(6-fluoro-1H-benzo[d]imidazol-2-yl)-4-chlorophenyl)-2-chloro-4-((3S,5R)-3,4,5-trimethylpiperazin-1-yl)benzamide Dihydrochloride]

Same assay, conditions: 30 nM Shh, 24 hours, luciferase activity (RLU), read-out: IC50 values of compounds that inhibit Hh pathway

IC50 [nM] | Structure (SMILES)
0.24 | C[C@@H]1CN(c2ccc(C(=O)Nc3ccc(Cl)c(-c4ncc(-c5ccsc5)[nH]4)c3)c(C(F)(F)F)c2)C[C@H](C)N1C [Example 164, N-(3-(5-(thiophen-3-yl)-1H-imidazol-2-yl)-4-chlorophenyl)-2-(trifluoromethyl)-4-((3S,5R)-3,4,5-trimethylpiperazin-1-yl) benzamide Dihydrochloride]
0.28 | C[C@@H]1CN(c2ccc(C(=O)Nc3ccc(Cl)c(-c4nc5cscc5[nH]4)c3)c(C(F)(F)F)c2)C[C@H](C)N1C [Example 200, N-(3-(1H-thieno[3,4-d]imidazol-2-yl)-4-chlorophenyl)-2-(trifluoromethyl)-4-((3S,5R)-3,4,5-trimethylpiperazin-1-yl) Benzamide]

Same assay, conditions: Mus musculus, C3H 10T1/2, 24 h, 30 nM Shh, luciferase activity (RLU), read-out: IC50 values of compounds that inhibit Hh pathway

IC50 [nM] | Structure (SMILES)
0.5 | CCN1[C@H](C)CN(c2ccc(C(=O)Nc3ccc(Cl)c(-c4ncc(-c5ccco5)[nH]4)c3)c(Cl)c2)C[C@@H]1C [Example 150, N-(3-(5-(furan-2-yl)-1H-imidazol-2-yl)-4-chlorophenyl)-2-chloro-4-((3S,5R)-4-ethyl-3,5-dimethylpiperazin-1-yl)benzamide]
2 | Cc1ccc(-c2cnc(-c3cc(NC(=O)c4ccc(N5C[C@@H](C)N(C)[C@@H](C)C5)cc4Cl)ccc3Cl)[nH]2)o1 [Example 151, N-(3-(5-(5-methylfuran-2-yl)-1H-imidazol-2-yl)-4-chlorophenyl)-2-chloro-4-((3S,5R)-3,4,5-trimethylpiperazin-1-yl)benzamide]
1.2 | Cc1ccc(-c2cnc(-c3cc(NC(=O)c4ccc(N5C[C@@H](C)N(C)[C@@H](C)C5)cc4C)ccc3Cl)[nH]2)o1 [Example 152, N-(3-(5-(5-methylfuran-2-yl)-1H-imidazol-2-yl)-4-chlorophenyl)-2-methyl-4-((3S,5R)-3,4,5-trimethylpiperazin-1-yl)benzamide]
0.38 | Cc1cc(N2C[C@@H](C)N(C)[C@@H](C)C2)ccc1C(=O)Nc1ccc(Cl)c(-c2ncc(-c3cccn3C)[nH]2)c1 [Example 161, N-(3-(5-(1-methyl-1H-pyrrol-2-yl)-1H-imidazol-2-yl)-4-chlorophenyl)-2-methyl-4-((3S,5R)-3,4,5-trimethylpiperazin-1-yl)benzamide]
0.3 | C[C@@H]1CN(c2ccc(C(=O)Nc3ccc(Cl)c(-c4ncc(-c5cccn5C)[nH]4)c3)c(Cl)c2)C[C@H](C)N1C [Example 162, N-(3-(5-(1-methyl-1H-pyrrol-2-yl)-1H-imidazol-2-yl)-4-chlorophenyl)-2-chloro-4-((3S,5R)-3,4,5-trimethylpiperazin-1-yl)benzamide]
0.19 | CCN1[C@H](C)CN(c2ccc(C(=O)Nc3ccc(Cl)c(-c4ncc(-c5ccsc5)[nH]4)c3)c(Cl)c2)C[C@@H]1C [Example 165, N-(3-(5-(thiophen-3-yl)-1H-imidazol-2-yl)-4-chlorophenyl)-2-chloro-4-((3S,5R)-4-ethyl-3,5-dimethylpiperazin-1-yl)benzamide Dihydrochloride]
28 | CCc1cnc(-c2cc(NC(=O)c3ccc(N4C[C@@H](C)N(C)[C@@H](C)C4)cc3C(F)(F)F)ccc2Cl)[nH]1 [Example 167, N-(3-(5-ethyl-1H-imidazol-2-yl)-4-chlorophenyl)-2-(trifluoromethyl)-4-((3S,5R)-3,4,5-trimethylpiperazin-1-yl)benzamide]
0.38 | CCc1cnc(-c2cc(NC(=O)c3ccc(N4C[C@@H](C)N(C)[C@@H](C)C4)c(F)c3C)ccc2Cl)[nH]1 [Example 168, N-(3-(5-ethyl-1H-imidazol-2-yl)-4-chlorophenyl)-2-methyl-3-fluoro-4-((3S,5R)-3,4,5-trimethylpiperazin-1-yl)benzamide]
0.67 | CCc1cnc(-c2cc(NC(=O)c3ccc(N4C[C@@H](C)N(CC)[C@@H](C)C4)cc3Cl)ccc2Cl)[nH]1 [Example 169, N-(3-(5-ethyl-1H-imidazol-2-yl)-4-chlorophenyl)-2-chloro-4-((3S,5R)-4-ethyl-3,5-dimethylpiperazin-1-yl)benzamide]
0.46 | CC(C)c1cnc(-c2cc(NC(=O)c3ccc(N4C[C@@H](C)N(C)[C@@H](C)C4)cc3C(F)(F)F)ccc2Cl)[nH]1 [Example 171, N-(3-(5-isopropyl-1H-imidazol-2-yl)-4-chlorophenyl)-2-(trifluoro-methyl)-4-((3S,5R)-3,4,5-trimethylpiperazin-1-yl)benzamide]
3.4 | Cc1cnc(-c2cc(NC(=O)c3ccc(N4C[C@@H](C)N(C)[C@@H](C)C4)cc3C)ccc2Cl)[nH]1 [Example 186, N-(3-(5-methyl-1H-imidazol-2-yl)-4-chlorophenyl)-2-methyl-4-((3S,5R)-3,4,5-trimethylpiperazin-1-yl)benzamide Dihydrochloride]
0.45 | CCc1cnc(-c2cc(NC(=O)c3ccc(N4C[C@@H](C)N(C)[C@@H](C)C4)cc3C)ccc2Cl)[nH]1 [Example 187, N-(3-(5-ethyl-1H-imidazol-2-yl)-4-chlorophenyl)-2-methyl-4-((3S,5R)-3,4,5-trimethylpiperazin-1-yl)benzamide Dihydrochloride]
1 | CCc1cnc(-c2cc(NC(=O)c3ccc(N4C[C@@H](C)N(C)[C@@H](C)C4)cc3Cl)ccc2Cl)[nH]1 [Example 188, N-(3-(5-ethyl-1H-imidazol-2-yl)-4-chlorophenyl)-2-chloro-4-((3S,5R)-3,4,5-trimethylpiperazin-1-yl)benzamide Dihydrochloride]
0.2 | Cc1c(C(=O)Nc2ccc(Cl)c(-c3ncc(C(C)C)[nH]3)c2)ccc(N2C[C@@H](C)N(C)[C@@H](C)C2)c1F [Example 190, N-(3-(5-isopropyl-1H-imidazol-2-yl)-4-chlorophenyl)-2-methyl-3-fluoro-4-((3S,5R)-3,4,5-trimethylpiperazin-1-yl)benzamide Dihydrochloride]
0.34 | CC(C)c1cnc(-c2cc(NC(=O)c3cc(F)c(N4C[C@@H](C)N(C)[C@@H](C)C4)cc3Cl)ccc2Cl)[nH]1 [Example 191, N-(3-(5-isopropyl-1H-imidazol-2-yl)-4-chlorophenyl)-2-chloro-5-fluoro-4-((3S,5R)-3,4,5-trimethylpiperazin-1-yl)benzamide Dihydrochloride]
0.52 | CCN1[C@H](C)CN(c2ccc(C(=O)Nc3ccc(Cl)c(-c4ncc(C(C)C)[nH]4)c3)c(Cl)c2)C[C@@H]1C [Example 192, N-(3-(5-isopropyl-1H-imidazol-2-yl)-4-chlorophenyl)-2-chloro-4-((3S,5R)-4-ethyl-3,5-dimethylpiperazin-1-yl)benzamide Dihydrochloride]
0.56 | C[C@@H]1CN(c2cc(Cl)c(C(=O)Nc3ccc(Cl)c(-c4ncc(C5CC5)[nH]4)c3)cc2F)C[C@H](C)N1C [Example 193, N-(3-(5-cyclopropyl-1H-imidazol-2-yl)-4-chlorophenyl)-2-chloro-5-fluoro-4-((3S,5R)-3,4,5-trimethylpiperazin-1-yl)benzamide Dihydrochloride]
0.63 | CCN1[C@H](C)CN(c2ccc(C(=O)Nc3ccc(Cl)c(-c4ncc(C5CC5)[nH]4)c3)c(Cl)c2)C[C@@H]1C [Example 194, N-(3-(5-cyclopropyl-1H-imidazol-2-yl)-4-chlorophenyl)-2-chloro-4-((3S,5R)-4-ethyl-3,5-dimethylpiperazin-1-yl)benzamide Dihydrochloride]
0.29 | CCN1[C@H](C)CN(c2ccc(C(=O)Nc3ccc(Cl)c(-c4nc5cscc5[nH]4)c3)c(Cl)c2)C[C@@H]1C [Example 203, N-(3-(1H-thieno[3,4-d]imidazol-2-yl)-4-chlorophenyl)-2-chloro-4-((3S,5R)-4-ethyl-3,5-dimethylpiperazin-1-yl)benzamide]
